We go through 10 compounds from patent US5840893A, “Compounds for treating infectious diseases” (priority 1996, dated 1998).

For data set [1], the system named is HIV-1. The data set can be described thus: Viral production in HIV-1-infected cultured monocytes at fixed 100 nM compound (Table II). The format is cell-based. Particulars: Human immunodeficiency virus 1, Monocyte, read-out: Viral Production (percentage of untreated control). How it is done:
Alternatively, the compounds may all be compared for inhibition of HIV replication at a fixed concentration. Presented in Table II are compounds that were used at a concentration of 100 nM to inhibit the production of HIV-1 in cultured monocytes infected with HIV-1 10 days prior to assay (10 ng of p24/10^6 cells) . The production of HIV-1 in each treated culture is reported as percentage of untreated control.

Data set [2] deals with HIV-1. Put plainly: AZT and Compound No. 2 in combination on HIV-1 infected monocyte cultures (RT activity). It is filed as cell-based, HIV-1 in human monocyte cultures. The following applies: for RT activity: (-) No. 2. How it is done:
Primary human monocytes were obtained from peripheral blood by Ficoll-Hypaque centrifugation and adherence to plastic as described previously. Gartner S. P., et al., 1986, Science 233:215. Briefly, after Ficoll-Hypaque (Pharmacia) separation, PBMCs were washed 4 times with DMEM (the last wash was done at 800 rpm to remove platelets) and resuspended in monocyte culture medium [DMEM supplemented with 1 mM glutamine, 10% heat-inactivated human serum, 1% penicillin+streptomycin mixture (Sigma)] at a density of 6×10^6 cells/ml. Cells were seeded in 24-well plates (1 ml per well) and incubated for 2 h at 37° C., 5% CO2. Following incubation, cells were washed 3 times with DMEM to remove non-adherent cells and incubation was continued in monocyte culture medium supplemented with 250 U/ml human M-CSF (Sigma). Cells were allowed to mature for 7 days prior to infection with the monocyte-tropic strain, HIV-1ADA. Nuovo, G. J., et al., 1992, Diagn. Mol. Pathol. 1:98. Two hours after infection, cells were washed with medium and cultured in RPMI supplemented with 10% human serum. In experiments where PCR analysis was performed, virus was pretreated with RNAse-free DNAse (Boehinger-Mannheim)for 2 h at room temperature and then filtered though a 0.2 μm pore nitrocellulose filter prior to infection.
For the reverse transcriptase (RT) assay, 10 μl of culture supernatant was added to 40 μl of reaction mixture (final composition was 50 mM Tris-HCl, pH 7.8; 20 mM KCl; 5 mM MgCl2; 1 mM DTT; 0.1% Triton X-100; 0.2 OD/ml polyA; 0.2 OD/ml oligo(dT)12-18; and 40 μCi/ml ^3 H-dTTP (76 Ci/mmol, DuPont) and incubated 2 hr at 37° C. 5 μl of the reaction mixture was then spotted onto the DE 81 (Whatman) paper. Paper was air dried and washed 5 times with 5% Na2 HPO4, followed by rinsing with distilled water. After air drying, paper was put on a Flexi Filter plate (Packard), covered with scintillation fluid and counted in a Top Count Microplate Counter (Packard). Results are expressed as counts per minute in 1 ml of supernatant (cpm/ml).
In view of these premises, the effects on HIV-1 replication in human monocyte cultures of the various concentrations of AZT, alone or in combination with 100 nM Compound No. 2, were tested using the protocols of Sections 6.2.1 and 6.2.2. Drugs were added to the monocyte cultures together with HIV-1 at about 10^5 TCID/ml. The concentration of drugs was maintained on refeeding. HIV-1 replication was assessed by assay of the supernatant for reverse transcriptase activity. The results are expressed as mean±std. dev. (cpmx10^-3) in Table V.

A further data set has as its system mice. Put plainly: Toxicity study: median lethal dose in mice, i.p. The format is in vivo. How it is done: The doses of compounds of the invention found to be lethal to 50% of the mice (LD50) were determined by intraperitoneal injection of groups of five animals with increasing doses of each compound. CNI-0294 was administered from 0, 2, 10, 20, 40, 80, 160, 320, 640, 1280 mg/kg in 0.5 ml of water/HCl; CNI-1594 at 0, 2.4, 5, 10, 20, 40, 80 mg/kg in 0.5 ml of water/HCl; CNI-1794 at 0, 20, 50, 80 mg/kg in 0.5 ml of water/HCl; and CNI-1894 at 0, 10, 20, 40, 80, 240, 480, 960 mg/kg in water/HCl. […] The percentage of animals in each group which died were utilized to calculate the LD50 by non-linear curve fitting with the Enzfit software (Elsevier Bioscience; Cambridge, UK) programmed with the Chou equation (Chou 1976, J Theor Biol 39:253-276)).
The compounds (FIGS. 4A-E), were screened for toxicity via a modified LD50 assay procedure as described above in an outbred strain of mice.

Another data set can be described thus: in vitro. Particulars: for number of metabolites: mouse liver post-mitochondrial supernatant, NADPH. The format is in vitro ADME, mouse (ND4 Swiss Webster). How it is done:
Several female ND4 Swiss Webster mice were euthanized by carbon dioxide inhalation and the livers excised and rinsed with ice cold phosphate buffered saline (pH 7.4). The livers were minced, gently homogenized in 50 mM phosphate buffer (pH 7.4) with a Dounce homogenizer, and centrifuged at 9600×g for 20 min. The post-mitochondrial supernatant was kept, glycerol added to 20%, and frozen at -70° C. in 1.0 ml aliquots until used. For each incubation, 1.0 ml of a 1.0 mg/ml drug solution was added to 3.0 ml of 50 mM phosphate buffer (pH 7.4), 1.0 ml of 2 mg/ml NADPH in 50 mM phosphate (pH 7.4), and 1.0 ml of the post-mitochondrial supernatant. Five hundred μl of each incubate was then immediately transferred to an ice-cold tube to provide the zero-time sample, and addition 500 μl aliquots removed to ice-cold tubes at 8, 15, 30, and 60 min. The samples were then extracted, and analyzed by HPLC as described in section 7.1. Control incubations were also performed where drug or post-mitochondrial supernatant was omitted. […] Peaks in the CNI compound incubations which increased over time, and were not present in control samples lacking the enzyme preparation were treated as putative metabolites.

In data set [3] the test system is Plasmodium falciparum clone Dd2. The data set can be described thus: Antimalarial activity in vitro, hypoxanthine incorporation, clone Dd2. The format is cell-based. The following applies: for IC50: Plasmodium falciparum, DD2, read-out: IC50 ± standard deviation. How it is done:
The antimalarial activity of the compounds was determined essentially as described in Desjardins et al. supra. Fifty Al of various concentrations of a compound of the invention, chloroquine, or pyrimethamine were added to the wells of microtiter plates, followed by 200 Al of ring-stage, synchronized, P. falciparum-infected erythrocytes (final hematocrit=1.5%, final parasitemia=1-5%). The plates were incubated for 24 hr in a candle jar kept at 37° C., and then 25 μl of [^3 H]-hypoxanthine (Amersham, Arlington Heights, Ill.; 2.5 μl Ci/well) was added. The plates were then incubated for a further 24 hr, before harvesting onto Unifilter-96 GF/C filter-microplates (Packard; Meriden, Conn.). Twenty-five μl of Microscint scintillation fluid (Packard) was added to each well of the filter-microplate, which was subsequently counted in a Top-count microplate scintillation counter (Packard). The percent of [^3 H] -hypoxanthine uptake relative to control infect-erythrocytes was used to determine the IC50 value for the compounds by non-linear regression for LD50 determination.
The Dd2 clone of P. falciparum, which was both chloroquine and pyrimethamine resistant, was utilized to compare the antimalarial activity of the remaining CNI compounds (Table VIII).

The conditions of data set [4]: i.p., 50 mg/kg, water.
Experimental: (§1) Standard addition curves for each test compound were constructed by adding increased amounts of drug to mouse or human A^+ plasma (Long Island Blood Services; Melville, N.Y.). […] The eluted sample was reduced to dryness in a rotary evaporator and resuspended in 1.0 ml Buffer A.
(§2) Female ND4 Swiss Webster mice (21-24 g) were obtained from Harlan Sprague Dawley (Indianapolis, Ind.) and randomly placed in groups of five in cages with free access to food and water. […] The other CNI compounds were administered intraperitoneally or by oral gavage as a solution in water titrated with sufficient HCl to dissolve the drug. At various time points, ranging from 5 min to 4 days, a single group of animals was euthanized by carbon dioxide inhalation and bled by cardiac puncture using heparin as an anticoagulant. The blood from the five mice in the group was pooled and centrifuged at 14000×g for 10 min. The volume of plasma was measured, and equal volume of Buffer A added, and the mixture extracted and analyzed as described above, except that the dried eluates were resuspended in 200 μl Buffer A and 100 μl was injected onto the high performance liquid chromatography (HPLC) system.
(§3) The area under the plasma concentration-time curve (AUC) was determined, and bioavailability was measured as AUCoral /AUCi.p.. […] The volume of distribution (VD) was calculated as dose/B, and the total clearance rate (Cltot) calculated as β*VD. Cmax and tmax are the maximal plasma concentration and time of this measurement, respectively.
A short description of a further data set: in vivo. The following applies: mouse, plasma, ip, 50 mg/kg.
In data set [5] the test system is HIV-1. The data set can be described thus: Inhibition of HIV-1 replication in cultured macrophages (Table I). It is filed as cell-based. The following applies: Human immunodeficiency virus 1, Macrophage; 50% inhibition of viral growth, RT or p24, macrophages. How it is done: A quantitative measurement of the activity of the compounds of the invention to block the replication of HIV-1 in non-dividing cells can be determined by culture of a macrophage-tropic strain of HIV-1 on peripheral blood-derived macrophages. The cells are cultured for 5-6 days prior to infection in a medium consisting of DMEM supplemented with 10% type A/B human serum and 200 U/ml Macrophage Colony Stimulating Factor, with half the medium changed after 3 days, to reach a density of about 10^6 cells per 5 ml well. A macrophage-tropic viral stock may be grown on these cells. The concentration of infectious particles in the stock is estimated by measurement of p24 antigen concentration.
To test the effect of compounds of the invention on HIV- 1 infection in the above-described culture system, the medium is removed and replaced with medium containing HIV-1 at a concentration of 1 ng of p24 (10^4 TCID50 /ml (TCID=tissue culture infectious doses)) and a known concentration of the compound of the invention (the inhibitor). After 24 hours, the cultures are washed to remove non-adherent virus and the culture is re-fed with medium containing the inhibitor at the desired concentration. The amount of replication of HIV-1 is estimated by an assay of the reverse transcriptase activity or by an assay of the concentration of p24 antigen in the culture medium every 2-3 days throughout the post-infection period. In a preferred embodiment the anti-HIV potency of the candidate drug is measured by comparison of the concentration of reverse transcriptase (RT) or of p24 antigen in the medium of the treated and control cultures at the time of the peak of these values in non-treated control cultures, that is about day 5 or 6 post-infection. Repetition at various levels of inhibitor allows for the calculation of the concentration of inhibitor that achieves 50% inhibition of viral growth, IC50. Table I discloses the IC50 of various inhibitors.

[6] abbreviates: 100 nM compound, monocytes infected 10 days prior, 10 ng p24/10^6 cells.

Counter-ions that a name gives are not always drawn. Like-named read-outs stand apart in the source and are kept apart here.

Experimental for in vivo: as §1, §2, §3

Consider `CC(=O)c1cccc(C(C)=O)c1N` [2,6-diacetylaniline], for which, in the data set with HIV-1 [1] (setting [6]), the activity at 0.1 µM turned out to be 28%.
Still for that read-out and setting: under `CC(=O)c1cncc(C(C)=O)c1` [3,5-diacetylpyridine] stands 58%.
On to `Cc1cn([C@H]2C[C@H](N=[N+]=[N-])[C@@H](CO)O2)c(=O)[nH]c1=O` [AZT], for which the inhibition at 10 pM with HIV-1 [2] (Human immunodeficiency virus 1, Monocyte, 264 h, read-out: reduction in RT activity) is approximately 20%. Further, the RT activity is on record as 0.92 ± 0.21 cpmx10^-3 in the data set with HIV-1 [2] (day-7, AZT 10 pM); 0.79 ± 0.14 cpmx10^-3 with HIV-1 [2] (day-7, AZT 100 pM); 0.60 ± 0.28 cpmx10^-3 in the data set with HIV-1 [2] (day-7, AZT 1 nM); 0.05 ± 0.02 cpmx10^-3 in the data set with HIV-1 [2] (day-7, AZT 10 nM); 1.63 ± 0.81 cpmx10^-3 in the data set with HIV-1 [2] (day-11, AZT 10 pM); 1.34 ± 0.59 cpmx10^-3 in the data set on HIV-1 [2] (day-11, AZT 100 pM). The RT activity is recorded as 1.07 ± 0.49 cpmx10^-3 in the data set on HIV-1 [2] (day-11, AZT 1 nM) and 0.08 ± 0.03 cpmx10^-3 with HIV-1 [2] (day-11, AZT 10 nM).
For orientation: IC50 means the concentration that gives 50% inhibition. As a reminder, the CL/F is clearance divided by bioavailability, as obtained after extravascular dosing. Take `CC(=O)c1cc(N)cc(C(C)=O)c1` [CNI-1894, 3,5-diacetylaniline]: in the data set on HIV-1 [1] (setting [6]), the activity at 0.1 µM was found to be 20%. Also, in the data set on mice, the “LD50 (median lethal dose)” value worked out at 258.64 ± 1.37 mg/kg; the “signs and time of toxic reactions / death” value was “died 2-3 days post injection, and showed no sign of any immediate toxicity”; the tolerability entry was “reasonably well tolerated”. Also, the number of metabolites entry in the data set “in vitro” is “one minor and one major metabolite”. The metabolised at 1 h in “in vitro” (mouse, liver post-mitochondrial supernatant, 60 min incubation, by peak area, read-out: drug altered (metabolic conversion)) is 17.3%. Moreover, the IC50 in data set [3] was more than 200 µM. Also, the “antimalarial activity at the highest concentration tested” value in data set [3] (clone Dd2, 200 μM) was “inactive at the highest concentration tested”. In data set [4], the “A (zero time intercept, distribution phase)” value was found to be 14.93 µg/mL; the “B (zero time intercept, elimination phase)” value is 0.15 µg/mL; the VD worked out at 6.60 L; the t1/2α was found to be 0.58 h. Moreover, in data set [4], the t1/2β stood at 23.10 h and the α is 1.19 h⁻¹. Besides, in the data set “in vivo”, the CL/F is 3.3 mL/min and the k el was 8.33e-06 s⁻¹.
Turning to `CC(=O)c1cc(NC(=N)NC(=N)N)cc(C(C)=O)c1` [Compound No. 12, N-(3,5-diacetylphenyl)biguanide hydrochloride], the activity at 0.1 µM in the data set on HIV-1 [1] (setting [6]) worked out at 12%.
Regarding `CC(=O)c1cc(Nc2nc(N)nc(N)n2)cc(C(C)=O)c1` [Compound No. 13, 2-(3,5-diacetylphenyl)amino-4,6-diamino-1,3,5-triazine], the activity at 0.1 µM in the data set on HIV-1 [1] (setting [6]) turned out to be 14%.
As to `CC(=O)c1cccc(Nc2cc(C)[n+](C)c(N)n2)c1` [Compound No. 14, 2-amino-4-(3-acetylphenyl)amino-1,6-dimethylpyrimidinium iodide], the IC50 in the data set on HIV-1 [5] was determined as 0.01 µM.
As for `CC(=O)c1ccc(Nc2cc(C)nc(N)n2)cc1` [Compound No. 17, 2-amino-4-(4-acetylphenyl)amino-6-methylpyrimidine], the activity at 0.1 µM with HIV-1 [1] was determined as 20%. Moreover, in the data set with mice, the “LD50 (median lethal dose)” value turned out to be 48.93 ± 0.12 mg/kg; the “LD50 compared with CNI-1594” value is “identical to that for CNI-1594”; the “signs and time of toxic reactions / death” value was “suggested a lethal neurotoxicity”.
Take `Cc1cc(Nc2ccccc2)nc(N)n1` [Compound No. 45, 4-phenylamino-2-amino-6-methylpyrimidine]: the IC50 in data set [3] came to 25.1 ± 0.72 µM.
In the case of `N=C(N)c1ccc(OCCCCCOc2ccc(C(=N)N)cc2)cc1` [pentamidine, reference compound], the number of metabolites result in “in vitro” is listed as “seven”.
